Experimental data as given in the supplement of paper PMC12463676, “Small-molecule dissolution of stress granules by redox modulation benefits ALS models” (Nature Chemical Biology, 2025).

Columns and labels:
lipoamide = compound: NC(=O)CCCCC1CCSS1 [lipoamide]; experiment: thermal stability z-score vs DMSO; higher = more thermally stabilized by treatment; details: HeLa, lipoamide concentration 100 µM
Procedure: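 Cellular thermal proteome profiling in HeLa cells. Cells were treated with 100 µM lipoamide for 1 h, with or without 1 mM arsenate for a further 1 h, then heated to ten temperatures (37-66.3 °C), and soluble protein was quantified by TMT mass spectrometry relative to 0.1% DMSO controls. The thermal stability score (sum of log2 fold changes minus the abundance score) was transformed to a z-score; mean of n = 3 experiments.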

potassium arsenate = compound: O=[As]([O-])(O)O.[K+] [potassium arsenate]; experiment: as above; details: HeLa; arsenate concentration 1 mM
Procedure: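 Cellular thermal proteome profiling in HeLa cells treated with 1 mM arsenate for 1 h (DMSO pretreatment), heated to ten temperatures (37-66.3 °C). Soluble protein was quantified by TMT mass spectrometry relative to DMSO controls; the thermal stability score was transformed to a z-score; mean of n = 3 experiments.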

[1] = arsenate co-treatment: 1 mM arsenate 1 h
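Further: each temperature applied for 3 min, abundance score taken as mean log2 fold change at the two lowest temperatures, z-score obtained by mean subtraction and division by SD.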

Sequence of UniProt Q8WWM7 (Q8WWM7 whole entry): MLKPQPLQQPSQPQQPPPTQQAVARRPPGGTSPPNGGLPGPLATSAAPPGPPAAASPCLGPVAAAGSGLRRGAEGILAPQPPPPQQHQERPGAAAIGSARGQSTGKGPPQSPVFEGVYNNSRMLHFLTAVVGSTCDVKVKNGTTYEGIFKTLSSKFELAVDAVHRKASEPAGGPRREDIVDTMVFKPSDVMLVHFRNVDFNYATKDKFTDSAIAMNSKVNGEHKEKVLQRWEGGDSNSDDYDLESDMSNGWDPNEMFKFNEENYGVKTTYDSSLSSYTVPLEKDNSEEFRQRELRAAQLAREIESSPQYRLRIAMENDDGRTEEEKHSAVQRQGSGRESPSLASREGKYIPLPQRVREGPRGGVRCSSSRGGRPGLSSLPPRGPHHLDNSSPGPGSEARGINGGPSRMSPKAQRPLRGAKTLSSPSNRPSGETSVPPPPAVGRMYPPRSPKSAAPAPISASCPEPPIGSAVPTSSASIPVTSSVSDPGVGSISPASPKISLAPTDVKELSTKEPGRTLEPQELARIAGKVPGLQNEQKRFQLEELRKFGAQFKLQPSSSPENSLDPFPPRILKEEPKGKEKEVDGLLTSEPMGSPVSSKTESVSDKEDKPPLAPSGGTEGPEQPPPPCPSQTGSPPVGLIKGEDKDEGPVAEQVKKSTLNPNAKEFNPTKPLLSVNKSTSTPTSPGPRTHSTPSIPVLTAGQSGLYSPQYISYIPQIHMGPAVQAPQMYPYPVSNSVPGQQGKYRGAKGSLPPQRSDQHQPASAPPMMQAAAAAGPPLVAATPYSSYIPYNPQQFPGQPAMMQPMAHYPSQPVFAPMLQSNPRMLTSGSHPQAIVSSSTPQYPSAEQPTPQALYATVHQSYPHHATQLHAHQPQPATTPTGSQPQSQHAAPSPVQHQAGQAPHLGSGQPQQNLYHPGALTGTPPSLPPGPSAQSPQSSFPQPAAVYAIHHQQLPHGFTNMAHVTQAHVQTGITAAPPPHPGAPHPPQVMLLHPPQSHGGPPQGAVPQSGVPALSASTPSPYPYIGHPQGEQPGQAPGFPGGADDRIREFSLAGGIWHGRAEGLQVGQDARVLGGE
Sequence of UniProt Q8WY36 (Q8WY36 whole entry): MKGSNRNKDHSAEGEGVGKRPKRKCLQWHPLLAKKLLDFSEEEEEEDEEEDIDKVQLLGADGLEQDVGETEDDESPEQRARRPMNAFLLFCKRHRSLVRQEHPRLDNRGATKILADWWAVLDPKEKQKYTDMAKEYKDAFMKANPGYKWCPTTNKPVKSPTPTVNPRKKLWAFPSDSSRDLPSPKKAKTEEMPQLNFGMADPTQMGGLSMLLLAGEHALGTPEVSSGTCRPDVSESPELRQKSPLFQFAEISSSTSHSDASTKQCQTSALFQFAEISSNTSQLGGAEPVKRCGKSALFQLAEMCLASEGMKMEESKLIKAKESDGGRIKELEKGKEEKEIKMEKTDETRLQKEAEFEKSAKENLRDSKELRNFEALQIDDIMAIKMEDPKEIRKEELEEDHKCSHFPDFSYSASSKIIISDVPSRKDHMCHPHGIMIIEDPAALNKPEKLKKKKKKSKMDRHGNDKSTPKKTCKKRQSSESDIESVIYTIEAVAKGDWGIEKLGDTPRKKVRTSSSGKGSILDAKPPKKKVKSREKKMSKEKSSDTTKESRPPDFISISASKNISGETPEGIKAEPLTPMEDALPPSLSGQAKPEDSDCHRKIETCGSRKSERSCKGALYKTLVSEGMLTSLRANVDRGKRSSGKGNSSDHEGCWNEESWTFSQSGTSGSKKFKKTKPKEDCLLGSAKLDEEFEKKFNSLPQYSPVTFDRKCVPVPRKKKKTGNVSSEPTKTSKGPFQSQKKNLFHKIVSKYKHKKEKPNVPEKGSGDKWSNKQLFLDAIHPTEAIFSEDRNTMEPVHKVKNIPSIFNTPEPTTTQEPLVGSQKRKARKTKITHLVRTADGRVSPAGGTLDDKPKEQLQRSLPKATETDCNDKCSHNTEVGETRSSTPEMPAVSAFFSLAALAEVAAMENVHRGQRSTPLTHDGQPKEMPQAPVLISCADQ
Sequence of UniProt P21283 (P21283 whole entry): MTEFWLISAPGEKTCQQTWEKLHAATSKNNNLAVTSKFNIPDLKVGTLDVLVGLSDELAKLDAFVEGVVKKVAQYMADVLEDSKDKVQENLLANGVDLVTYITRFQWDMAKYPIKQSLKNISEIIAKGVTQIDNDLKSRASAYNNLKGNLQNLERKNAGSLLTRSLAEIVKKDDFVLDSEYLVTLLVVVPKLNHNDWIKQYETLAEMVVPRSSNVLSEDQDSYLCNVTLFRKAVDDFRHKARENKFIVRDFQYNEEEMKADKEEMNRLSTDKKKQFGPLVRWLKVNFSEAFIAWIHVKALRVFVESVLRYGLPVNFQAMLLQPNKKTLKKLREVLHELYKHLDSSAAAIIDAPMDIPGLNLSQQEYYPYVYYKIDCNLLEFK
Sequence of UniProt P56134 (P56134 whole entry): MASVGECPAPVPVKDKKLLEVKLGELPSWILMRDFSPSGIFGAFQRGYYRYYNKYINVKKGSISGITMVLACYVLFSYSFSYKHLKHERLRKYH
Sequence of UniProt Q8WXE1 (Q8WXE1 whole entry): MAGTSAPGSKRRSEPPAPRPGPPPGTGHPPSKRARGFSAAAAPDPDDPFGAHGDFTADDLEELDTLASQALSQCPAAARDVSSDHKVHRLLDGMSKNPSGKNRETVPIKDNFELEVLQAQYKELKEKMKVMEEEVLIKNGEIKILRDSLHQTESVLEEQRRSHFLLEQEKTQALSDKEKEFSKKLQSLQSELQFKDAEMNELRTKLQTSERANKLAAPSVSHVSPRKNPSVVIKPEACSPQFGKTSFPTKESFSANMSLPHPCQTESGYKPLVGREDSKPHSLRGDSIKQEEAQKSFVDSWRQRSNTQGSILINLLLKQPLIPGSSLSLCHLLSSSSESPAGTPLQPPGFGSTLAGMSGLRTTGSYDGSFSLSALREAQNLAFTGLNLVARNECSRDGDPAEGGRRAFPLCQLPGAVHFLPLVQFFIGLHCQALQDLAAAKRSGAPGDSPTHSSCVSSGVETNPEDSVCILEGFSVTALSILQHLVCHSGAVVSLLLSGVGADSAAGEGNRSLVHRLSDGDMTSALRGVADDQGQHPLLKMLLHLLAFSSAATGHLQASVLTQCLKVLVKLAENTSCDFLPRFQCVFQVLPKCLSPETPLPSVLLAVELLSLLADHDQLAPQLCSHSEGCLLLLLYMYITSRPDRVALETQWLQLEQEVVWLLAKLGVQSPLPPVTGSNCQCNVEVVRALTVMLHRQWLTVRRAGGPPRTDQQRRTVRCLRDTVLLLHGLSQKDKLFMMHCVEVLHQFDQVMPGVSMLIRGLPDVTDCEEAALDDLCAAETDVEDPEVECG
Sequence of UniProt Q9Y5K8 (Q9Y5K8 whole entry): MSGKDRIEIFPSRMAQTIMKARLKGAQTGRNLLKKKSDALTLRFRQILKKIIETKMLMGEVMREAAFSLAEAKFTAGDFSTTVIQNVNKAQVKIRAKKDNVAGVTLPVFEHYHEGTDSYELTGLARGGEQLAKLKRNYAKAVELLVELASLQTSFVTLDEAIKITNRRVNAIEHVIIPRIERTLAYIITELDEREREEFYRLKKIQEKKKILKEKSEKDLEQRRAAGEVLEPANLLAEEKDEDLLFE
Sequence of UniProt Q9UIG0 (Q9UIG0 whole entry): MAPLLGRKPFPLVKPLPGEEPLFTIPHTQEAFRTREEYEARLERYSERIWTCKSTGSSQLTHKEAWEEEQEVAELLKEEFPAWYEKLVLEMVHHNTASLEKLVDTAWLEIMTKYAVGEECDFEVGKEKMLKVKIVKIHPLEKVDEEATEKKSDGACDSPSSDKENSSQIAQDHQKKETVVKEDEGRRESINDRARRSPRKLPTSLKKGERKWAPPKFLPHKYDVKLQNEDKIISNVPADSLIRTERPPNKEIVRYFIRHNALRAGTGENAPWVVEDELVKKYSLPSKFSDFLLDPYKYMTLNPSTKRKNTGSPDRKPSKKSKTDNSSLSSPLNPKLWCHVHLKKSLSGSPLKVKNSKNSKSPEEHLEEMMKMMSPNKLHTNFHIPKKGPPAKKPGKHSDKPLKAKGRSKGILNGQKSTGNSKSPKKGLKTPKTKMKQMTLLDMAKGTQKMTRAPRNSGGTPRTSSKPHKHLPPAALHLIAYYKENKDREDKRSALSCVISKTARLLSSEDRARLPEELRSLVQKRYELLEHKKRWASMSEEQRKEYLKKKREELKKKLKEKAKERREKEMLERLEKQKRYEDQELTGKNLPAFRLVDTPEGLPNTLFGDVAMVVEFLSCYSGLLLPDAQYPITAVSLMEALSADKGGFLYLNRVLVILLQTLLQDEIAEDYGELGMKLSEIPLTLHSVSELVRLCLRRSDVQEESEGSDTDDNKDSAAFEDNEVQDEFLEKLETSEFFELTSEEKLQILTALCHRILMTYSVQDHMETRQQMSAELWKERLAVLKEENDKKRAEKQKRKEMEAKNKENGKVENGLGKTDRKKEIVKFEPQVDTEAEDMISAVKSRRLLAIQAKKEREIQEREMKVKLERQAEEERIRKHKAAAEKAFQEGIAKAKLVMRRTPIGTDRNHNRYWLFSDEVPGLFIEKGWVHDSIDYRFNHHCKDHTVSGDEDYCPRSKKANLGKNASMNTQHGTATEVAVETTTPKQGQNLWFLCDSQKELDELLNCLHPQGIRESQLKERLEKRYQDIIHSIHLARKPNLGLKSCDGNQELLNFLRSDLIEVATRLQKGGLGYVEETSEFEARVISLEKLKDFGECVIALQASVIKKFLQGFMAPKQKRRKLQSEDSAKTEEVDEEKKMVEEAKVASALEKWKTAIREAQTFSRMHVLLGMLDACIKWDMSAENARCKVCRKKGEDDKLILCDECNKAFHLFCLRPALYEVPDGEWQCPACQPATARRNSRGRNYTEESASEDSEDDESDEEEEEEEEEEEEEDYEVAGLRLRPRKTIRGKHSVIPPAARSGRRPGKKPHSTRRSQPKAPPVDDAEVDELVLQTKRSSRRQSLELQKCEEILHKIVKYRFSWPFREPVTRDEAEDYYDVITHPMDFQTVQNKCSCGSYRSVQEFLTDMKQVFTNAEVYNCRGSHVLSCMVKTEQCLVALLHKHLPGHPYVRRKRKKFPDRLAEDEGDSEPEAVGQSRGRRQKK

Target	thermal stability z-score (lipoamide; [1])	thermal stability z-score (lipoamide; arsenate co-treatment: none)	thermal stability z-score (potassium arsenate)
ATP5J2 (UniProt P56134)	0.46	0.37	-0.0845
ATP5J (UniProt P18859)	2.44	1.93	1.53
ATP5L (UniProt O75964)	0.758	-1.18	0.595
ATP5O (UniProt P48047)	0.0702	-0.283	-0.119
ATP6AP1 (UniProt Q15904)	-0.952	-0.601	0.569
ATP6AP2 (UniProt O75787)	-2.63	-2.3	-0.366
ATP6V0A1 (UniProt Q93050)	0.0809	0.332	0.705
ATP6V0A2 (UniProt Q9Y487)	-0.105	0.146	-0.424
ATP6V0D1 (UniProt P61421)	-0.621	-0.115	-0.134
ATP6V1A (UniProt P38606)	-0.368	-0.529	-0.613
ATP6V1B2 (UniProt P21281)	-0.0948	-0.684	-0.745
ATP6V1C1 (UniProt P21283)	-0.136	0.0202	0.132
ATP6V1D (UniProt Q9Y5K8)	0.546	0.0685	-0.425
ATP6V1E1 (UniProt P36543)	0.0691	-0.201	0.637
ATP6V1G1 (UniProt O75348)	0.563	0.473	0.295
ATP6V1H (UniProt Q9UI12)	0.0391	-0.146	-0.0897
ATP7A (UniProt Q04656)	-0.29	-0.175	-0.674
ATP9A (UniProt O75110)	0.482	0.278	-0.569
ATP11A (UniProt P98196)	-0.441	0.419	-0.309
ATP11B (UniProt Q9Y2G3)	0.0989	-0.588	-1.03
ATP11C (UniProt Q8NB49)	-0.348	0.254	-1.13
ATP13A1 (UniProt Q9HD20)	-0.0204	0.186	-0.277
ATP13A3 (UniProt Q9H7F0)	-0.563	0.206	0.165
ATPAF1 (UniProt Q5TC12)	-0.471	-0.084	-0.64

Target	thermal stability z-score (lipoamide; [1])	thermal stability z-score (lipoamide; arsenate co-treatment: none)	thermal stability z-score (potassium arsenate)
ATPAF2 (UniProt Q8N5M1)	-0.263	-0.0435	-0.318
ATPIF1 (UniProt Q9UII2)	0.646	0.505	-0.206
ATR (UniProt Q13535)	-0.0437	0.124	-0.568
ATRAID (UniProt Q6UW56)	-2.95	-2.55	0.451
ATRIP (UniProt Q8WXE1)	0.275	-0.148	-0.137
ATRN (UniProt O75882)	0.622	-0.532	0.705
ATRX (UniProt P46100)	-0.0326	0.195	-0.0925
ATXN2 (UniProt Q99700)	0.168	0.133	-0.245
ATXN2L (UniProt Q8WWM7)	0.44	0.347	-0.118
ATXN3 (UniProt P54252)	0.199	0.278	-0.115
ATXN10 (UniProt Q9UBB4)	0.258	0.374	-1.03
AUH (UniProt Q13825)	-0.0558	0.0366	0.0655
AUP1 (UniProt Q9Y679)	-0.649	-1.09	-0.628
AURKA (UniProt O14965)	-0.091	-0.269	-0.391
AVEN (UniProt Q9NQS1)	0.134	-0.00487	-0.823
AVL9 (UniProt Q8NBF6)	0.0764	0.143	0.203
AXL (UniProt P30530)	0.0102	0.0513	0.0984
AZIN1 (UniProt O14977)	0.745	0.806	0.62
B2M (UniProt P61769)	-0.115	-0.125	1.06
B3GALNT2 (UniProt Q8NCR0)	-0.788	-0.394	-1.27
B3GAT3 (UniProt O94766)	-0.54	-0.00376	0.0971
B3GLCT (UniProt Q6Y288)	-0.669	-1.54	0.968
B4GALT1 (UniProt P15291)	-0.454	-0.565	0.0478
B4GALT4 (UniProt O60513)	-0.0137	-0.101	0.252

Target	thermal stability z-score (lipoamide; [1])	thermal stability z-score (lipoamide; arsenate co-treatment: none)	thermal stability z-score (potassium arsenate)
B4GALT5 (UniProt O43286)	-0.000852	-0.338	-0.0207
B4GAT1 (UniProt O43505)	-0.309	-0.831	0.0622
BABAM1 (UniProt Q9NWV8)	0.196	0.129	-0.323
BACE2 (UniProt Q9Y5Z0)	-0.766	-0.974	1.09
BACH1 (UniProt O14867)	-0.551	-0.333	0.169
BAG1 (UniProt Q99933)	-0.351	0.0085	-0.464
BAG2 (UniProt O95816)	0.187	0.292	-0.106
BAG3 (UniProt O95817)	-0.145	0.303	0.236
BAG4 (UniProt O95429)	0.25	0.752	0.76
BAG5 (UniProt Q9UL15)	0.228	0.437	-0.198
BAIAP2 (UniProt Q9UQB8)	0.142	0.0757	-0.138
BAIAP2L1 (UniProt Q9UHR4)	0.0217	-0.166	0.177
BANF1 (UniProt O75531)	0.324	-0.358	-2.36
BASP1 (UniProt P80723)	0.861	0.592	-0.142
BAT3|BAG6	-0.102	-0.0326	0.518
BAX (UniProt Q07812)	0.343	1.42	1.46
BAZ1A (UniProt Q9NRL2)	-0.258	0.0591	-0.236
BAZ1B (UniProt Q9UIG0)	-0.152	-0.073	0.21
BBX (UniProt Q8WY36)	-0.177	-0.12	-0.402
BCAP29 (UniProt Q9UHQ4)	0.262	0.211	-0.458
BCAP31 (UniProt P51572)	0.0788	0.099	-0.144
BCAR1 (UniProt P56945)	-0.559	-0.583	-0.154
BCAR3 (UniProt O75815)	-0.0123	-0.0689	-0.106
